Patent publication US20160122820A1, “Screening Method for Identifying Active Agents” (Avon Products, Inc., priority 2014, published 2016)

System: human skin
Conditions: for CYP7B1 gene expression (fold change): in vivo; for BIRC3 gene expression (fold change) / C1orf162 gene expression (fold change) / CCR2 gene expression (fold change) / CD1B gene expression (fold change) / CD2 gene expression (fold change) / CD53 gene expression (fold change) / CD86 gene expression (fold change) / CD226 gene expression (fold change) / CHRM4 gene expression (fold change) / CLEC7A gene expression (fold change) / COL3A1 gene expression (fold change) / COL5A2 gene expression (fold change) / COL6A6 gene expression (fold change) / COL14A1 gene expression (fold change) / CTSS gene expression (fold change) / CYBB gene expression (fold change) / CYTIP gene expression (fold change) / DIO2 gene expression (fold change) / EVI2B gene expression (fold change) / FAP gene expression (fold change) / FCGR2A gene expression (fold change) / FPR3 gene expression (fold change) / FYB gene expression (fold change) / GDPD2 gene expression (fold change) / GLIPR1 gene expression (fold change) / GMFG gene expression (fold change) / GPR174 gene expression (fold change) / GZMK gene expression (fold change) / HIST1H3A gene expression (fold change) / HLA-DPA1 gene expression (fold change) / HLA-DQA1 gene expression (fold change) / HLA-DRA gene expression (fold change) / IFI44L gene expression (fold change) / IFI44 gene expression (fold change) / IL33 gene expression (fold change) / IRF8 gene expression (fold change) / KIAA0226L gene expression (fold change) / KLRB1 gene expression (fold change) / LYZ gene expression (fold change) / MIRLET7C gene expression (fold change) / MNDA gene expression (fold change) / OCA2 gene expression (fold change) / PARP14 gene expression (fold change) / PCSK2 gene expression (fold change) / PLAC8 gene expression (fold change) / PLEK gene expression (fold change) / PTPRC gene expression (fold change) / RGS1 gene expression (fold change) / RNASE6 gene expression (fold change) / SAMD9 gene expression (fold change) / SELL gene expression (fold change) / SPP1 gene expression (fold change) / SRGN gene expression (fold change) / ST8SIA4 gene expression (fold change) / TPPP gene expression (fold change) / TRPM1 gene expression (fold change) / UGT2A1 gene expression (fold change) / VCAM1 gene expression (fold change): photodamaged forearm skin, 0.02% partially occlusive patch 30 days, 30-day biopsy relative to baseline, negative = downregulated

CC1=C(/C=C/C(C)=C/C=C/C(C)=C/C(=O)O)C(C)(C)CCC1 [RA, retinoic acid]
CYP7B1 gene expression (fold change): 1.320 fold change | BIRC3 gene expression (fold change): 1.555 fold change | C1orf162 gene expression (fold change): 1.356 fold change | CCR2 gene expression (fold change): 1.658 fold change | CD1B gene expression (fold change): 1.510 fold change | CD2 gene expression (fold change): 1.339 fold change | CD53 gene expression (fold change): 1.586 fold change | CD86 gene expression (fold change): 1.468 fold change | CD226 gene expression (fold change): 1.423 fold change | CHRM4 gene expression (fold change): −1.326 fold change | CLEC7A gene expression (fold change): 1.964 fold change | COL3A1 gene expression (fold change): 1.443 fold change | COL5A2 gene expression (fold change): 1.369 fold change | COL6A6 gene expression (fold change): 2.091 fold change | COL14A1 gene expression (fold change): 1.311 fold change | CTSS gene expression (fold change): 1.302 fold change | CYBB gene expression (fold change): 1.637 fold change | CYTIP gene expression (fold change): 1.336 fold change | DIO2 gene expression (fold change): −1.548 fold change | EVI2B gene expression (fold change): 1.405 fold change | FAP gene expression (fold change): 1.370 fold change | FCGR2A gene expression (fold change): 1.366 fold change | FPR3 gene expression (fold change): 1.439 fold change | FYB gene expression (fold change): 1.483 fold change | GDPD2 gene expression (fold change): −2.585 fold change | GLIPR1 gene expression (fold change): 1.422 fold change | GMFG gene expression (fold change): 1.358 fold change | GPR174 gene expression (fold change): 1.411 fold change | GZMK gene expression (fold change): 1.571 fold change | HIST1H3A gene expression (fold change): 1.375 fold change | HLA-DPA1 gene expression (fold change): 1.466 fold change | HLA-DQA1 gene expression (fold change): 1.594 fold change | HLA-DRA gene expression (fold change): 1.403 fold change | IFI44L gene expression (fold change): 1.472 fold change | IFI44 gene expression (fold change): 1.337 fold change | IL33 gene expression (fold change): 1.587 fold change | IRF8 gene expression (fold change): 1.725 fold change | KIAA0226L gene expression (fold change): 1.307 fold change | KLRB1 gene expression (fold change): 1.363 fold change | LYZ gene expression (fold change): 2.271 fold change | MIRLET7C gene expression (fold change): −1.319 fold change | MNDA gene expression (fold change): 1.406 fold change | OCA2 gene expression (fold change): −1.432 fold change | PARP14 gene expression (fold change): 1.364 fold change | PCSK2 gene expression (fold change): −1.825 fold change | PLAC8 gene expression (fold change): 1.844 fold change | PLEK gene expression (fold change): 1.667 fold change | PTPRC gene expression (fold change): 1.606 fold change | RGS1 gene expression (fold change): 1.503 fold change | RNASE6 gene expression (fold change): 1.540 fold change | SAMD9 gene expression (fold change): 5.339 fold change | SELL gene expression (fold change): 1.691 fold change | SPP1 gene expression (fold change): 1.416 fold change | SRGN gene expression (fold change): 1.569 fold change | ST8SIA4 gene expression (fold change): 1.389 fold change | TPPP gene expression (fold change): −1.402 fold change | TRPM1 gene expression (fold change): −1.306 fold change | UGT2A1 gene expression (fold change): −1.369 fold change | VCAM1 gene expression (fold change): 1.730 fold change

CC1=C(/C=C/C(C)=C/C=C/C(C)=C/CO)C(C)(C)CCC1 [Retinol, retinol]
CYP7B1 gene expression (fold change): 1.309 fold change | BIRC3 gene expression (fold change): 1.815 fold change | C1orf162 gene expression (fold change): 1.301 fold change | CCR2 gene expression (fold change): 1.416 fold change | CD1B gene expression (fold change): 1.844 fold change | CD2 gene expression (fold change): 1.311 fold change | CD53 gene expression (fold change): 1.483 fold change | CD86 gene expression (fold change): 1.348 fold change | CD226 gene expression (fold change): 1.396 fold change | CHRM4 gene expression (fold change): −1.401 fold change | CLEC7A gene expression (fold change): 1.502 fold change | COL3A1 gene expression (fold change): 1.455 fold change | COL5A2 gene expression (fold change): 1.380 fold change | COL6A6 gene expression (fold change): 2.245 fold change | COL14A1 gene expression (fold change): 1.408 fold change | CTSS gene expression (fold change): 1.514 fold change | CYBB gene expression (fold change): 1.413 fold change | CYTIP gene expression (fold change): 1.481 fold change | DIO2 gene expression (fold change): −1.384 fold change | EVI2B gene expression (fold change): 1.323 fold change | FAP gene expression (fold change): 1.518 fold change | FCGR2A gene expression (fold change): 1.346 fold change | FPR3 gene expression (fold change): 1.321 fold change | FYB gene expression (fold change): 1.404 fold change | GDPD2 gene expression (fold change): −1.363 fold change | GLIPR1 gene expression (fold change): 1.450 fold change | GMFG gene expression (fold change): 1.300 fold change | GPR174 gene expression (fold change): 1.339 fold change | GZMK gene expression (fold change): 1.402 fold change | HIST1H3A gene expression (fold change): −1.363 fold change | HLA-DPA1 gene expression (fold change): 1.364 fold change | HLA-DQA1 gene expression (fold change): 1.378 fold change | HLA-DRA gene expression (fold change): 1.439 fold change | IFI44L gene expression (fold change): 1.320 fold change | IFI44 gene expression (fold change): 1.429 fold change | IL33 gene expression (fold change): 1.360 fold change | IRF8 gene expression (fold change): 1.392 fold change | KIAA0226L gene expression (fold change): 1.371 fold change | KLRB1 gene expression (fold change): 1.377 fold change | LYZ gene expression (fold change): 1.603 fold change | MIRLET7C gene expression (fold change): 1.366 fold change | MNDA gene expression (fold change): 1.805 fold change | OCA2 gene expression (fold change): −1.334 fold change | PARP14 gene expression (fold change): 1.356 fold change | PCSK2 gene expression (fold change): −1.566 fold change | PLAC8 gene expression (fold change): 1.434 fold change | PLEK gene expression (fold change): 1.449 fold change | PTPRC gene expression (fold change): 1.446 fold change | RGS1 gene expression (fold change): 1.379 fold change | RNASE6 gene expression (fold change): 1.452 fold change | SAMD9 gene expression (fold change): 1.382 fold change | SELL gene expression (fold change): 1.304 fold change | SPP1 gene expression (fold change): 1.604 fold change | SRGN gene expression (fold change): 1.353 fold change | ST8SIA4 gene expression (fold change): 1.366 fold change | TPPP gene expression (fold change): −1.328 fold change | TRPM1 gene expression (fold change): −1.431 fold change | UGT2A1 gene expression (fold change): −1.696 fold change | VCAM1 gene expression (fold change): 1.357 fold change
